Measurements taken from article PMC10692721, “Drug discovery for heart failure targeting myosin-binding protein C” (The Journal of Biological Chemistry, 2023).
“Also recorded” adds a separate entry of the source. Where a name gives a salt, the structure may show the parent alone. Blank lines part the entries; values can stand above or below the compound they belong to.

What was measured:
[1] = tested on: FMAL-actin/TMR-cC0-C2 interaction; test: FLT-FRET concentration-response assay, FMAL-actin plus TMR-cC0-C2; assay type: binding, human; conditions: for specificity of FLT-FRET effect for unphosphorylated over phosphorylated cC0-C2: effect on cC0-C2 compared to phosphorylated cC0-C2 (Tables 1 and 2); for effect on FLT-FRET / binding between FMAL-actin and TMR-cC0-C2 (in words): unphosphorylated cC0-C2
Method in brief: (§1)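 Hits tested at eight concentrations (0.5–100 μM) and read on a high-throughput fluorescence lifetime plate reader. Hill fits applied only under certain conditions.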

[2] = tested on: FMAL-actin/TMR-fC1-C2 interaction; test: FLT-FRET concentration-response assay, FMAL-actin plus TMR-fC1-C2; assay type: binding
Protocol: (§2) Compounds identified as initial hits were further examined to determine the concentration–response curves for seven conditions ([1]): FMAL-actin alone identified actin-binding compounds that alter the FLT of FMAL-actin ([2]).
(§3) Fluorescence lifetime (FLT) measurements were acquired using a high-throughput FLT plate reader (Fluorescence Innovations, Inc) ([14], [27]), provided by Photonic Pharma LLC. […] The observed waveforms were analyzed as described previously ([15], [28]).
(§4) The primary hits were dissolved in DMSO to make a 10 mM stock solution, which was serially diluted in 96-well mother plates. Hits were screened at eight concentrations (0.5–100 μM). […] Compounds (1 μl) were transferred from the mother plates into 384-well plates using a Mosquito HV liquid handler (TTP Labtech Ltd, Hertfordshire, UK). The same procedure of dispensing as for the pilot screening was applied in the concentration-response assays. Concentration dependence of the FLT-FRET (E/EDMSO) or FLT-TMR (Δτ) change data was fit to a Hill equation only under certain conditions to help guide the eye (Fig. 4).

[3] = tested on: FMAL-actin plus TMR-cC0-C2; test: Selleck library HTS, 473 nm excitation (FLT of FMAL-actin with TMR-cC0-C2, FLT-FRET); assay type: binding, human; conditions: for 473-nm Δτ, Repeat 1 / 473-nm Δτ, Repeat 2: initial screen, 30 μM compound; for 473-nm z-score (based on avg Δτ): robust z-score, hit threshold ±4, 30 μM compound
Method in brief: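 Donor fluorescence lifetime was then recorded. Waveforms were fit to a single exponential, and ΔFLT was obtained after a moving-median plate-gradient correction (half-row window), rescaled by the median DMSO lifetime.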

TMR-cC0-C2 = test: Selleck library HTS, 532 nm excitation (FLT of TMR-cC0-C2 in presence of FMAL-actin); assay type: binding, human; conditions: for 532-nm Δτ, Repeat 1 / 532-nm Δτ, Repeat 2: initial screen, 30 μM compound; for 532-nm z-score (based on avg Δτ): robust z-score, hit threshold ±4, 30 μM compound
[4] = tested on: rabbit fast skeletal (psoas) myofibrils; test: Skeletal myofibril ATPase assay; assay type: biochemical; conditions: 50 μM compound, pCa 8 to pCa 4
Protocol: Rabbit psoas and bovine cardiac myofibrils were prepared as described in our previous study ([17]). An enzyme-coupled, NADH-linked ATPase assay was used to measure skeletal and cardiac myofibril ATPase activity in 96-well microplates at 23 °C. Ionic strength was maintained below 0.2 M, so myofilaments remained insoluble and stable ([32]). To achieve optimal enzymatic activities, buffers for skeletal and cardiac myofibrils differed slightly ([33], [34]): skeletal in 50 mM MOPS, 100 mM KCl, 5 mM MgCl2, 1 mM EGTA, pH 7.0; cardiac in 20 mM MOPS, 35 mM NaCl, 5 mM MgCl2, 1 mM EGTA, pH 7.0. Each well in the microplate contained an assay mix of 0.84 mM phosphoenolpyruvate, 0.17 mM NADH, 10 U/vol pyruvate kinase, 20 U/vol lactate dehydrogenase. The concentration of free Ca^2+ was controlled by EGTA buffering ([35]). Myofibrils were dispensed in microplates with a multichannel pipette and were incubated with assay mix plus compound of interest for 20 min at 23 °C. The concentration of myofibrils used was 0.01 mg/ml for skeletal and 0.05 mg/ml for cardiac myofibrils. The assay was started upon the addition of ATP, at a final concentration of 2.1 mM (total volume to 200 μl), and absorbance was recorded at 340 nm in a SpectraMax Plus microplate spectrophotometer from Molecular Devices. The steady-state myofibrillar ATPase rate was measured from NADH oxidation, measured as the rate of decrease in absorption at 340 nm for 30 min, with absorption data collected every 15 s. All data and statistical analysis of steady-state kinetics were conducted with the OriginPro program. The results were fitted with the Hill equation:(6) V=V0+(Vmax/1+10^−n∗^(pCa50−pCa)) where V is the ATPase rate and n is the Hill coefficient.
ATPase activity is reported on the μmol ATP/mg protein/min scale. Average data are presented as mean ± SD. Sample means are derived from three different myofibril preps (N = 3), each done in duplicate (n = 6).
The effects of compounds on ATPase activity of myofibrils were determined in the presence of 50 μM compound, across a 12-point pCa range from 4.0 (activation) to 8.0 (relaxation). The calcium sensitivity (pCa50) was determined by fitting the curves to the Hill equation. In all experiments, a 1% DMSO-only control was included. The normalized ATPase activity of the selected compounds can be found in Figure 6.

[5] = tested on: TMR-cC0-C2 (C0-C2 fragment of human cMyBP-C); test: FLT-TMR concentration-response assay (FLT of TMR on cC0-C2, no actin); assay type: binding; conditions: for effect on FLT of TMR-cC0-C2 (in words): concentration-response, no actin
Method in brief: as §1

[6] = tested on: TMR-fC1-C2 (C1-C2 of fast skeletal MyBP-C); test: FLT-TMR concentration-response assay, fC1-C2; assay type: binding; conditions: for effect on FLT of TMR-fC1-C2 (in words): concentration-response, no actin
Method in brief: as §1

[7] = tested on: FMAL-actin/PKA-phosphorylated TMR-cC0-C2 interaction; test: FLT-FRET concentration-response assay, FMAL-actin plus PKA-phosphorylated TMR-cC0-C2; assay type: binding, human; conditions: phosphorylated cC0-C2
Protocol: as §2, §3, §4

[8] = tested on: PKA-phosphorylated TMR-cC0-C2 (cC0-C2#P); test: FLT-TMR concentration-response assay, PKA-phosphorylated cC0-C2; assay type: binding, human
Method in brief: as §1

Compound: C#Cc1cccc(Nc2ncnc3cc(OCCOC)c(OCCOC)cc23)c1 [Erlotinib]
cC0-C2/cC0-C2#P (ratio of FLT changes) ([5]; 60 μM compound): 1.0
cC0-C2 FLT change (% change from DMSO, FLT of TMR-MyBP-C) ([5]; 60 μM compound): 9.8%
effect on FLT of TMR-cC0-C2 (in words) [5]: increases; also recorded: affect
cC0-C2#P FLT change (% change from DMSO, FLT of TMR-MyBP-C) ([8]; 60 μM compound): 9.7%
effect on FLT of PKA-phosphorylated TMR-cC0-C2 (in words) ([8]; concentration-response, no actin): increases
cC0-C2/fC1-C2 (ratio of FLT changes) ([6]; 60 μM compound): 1.2
fC1-C2 FLT change (% change from DMSO, FLT of TMR-MyBP-C) ([6]; 60 μM compound): 8.5%
effect on FLT of TMR-fC1-C2 (in words) [6]: increases
effect on FLT-FRET / binding between FMAL-actin and TMR-cC0-C2 (in words) [1]: decrease
473-nm Δτ, Repeat 1 [3]: 0.026 ns
473-nm Δτ, Repeat 2 [3]: 0.001 ns
473-nm z-score (based on avg Δτ) [3]: 0.78
532-nm Δτ, Repeat 1 (TMR-cC0-C2): 0.100 ns
532-nm Δτ, Repeat 2 (TMR-cC0-C2): 0.119 ns
532-nm z-score (based on avg Δτ) (TMR-cC0-C2): 6.74
effect on skeletal MF ATPase activity (in words) [4]: affected; also recorded: affect skeletal muscle ATPase

Compound: CCN(C(=O)c1c(O)c2c(Cl)cccc2n(C)c1=O)c1ccccc1 [Laquinimod]
effect on FLT of TMR-cC0-C2 (in words) [5]: do not affect
effect on FLT of TMR-fC1-C2 (in words) [6]: do not affect
specificity of FLT-FRET effect for unphosphorylated over phosphorylated cC0-C2 [1]: stronger reduction of FRET with non-phosphorylated than phosphorylated
effect on FLT-FRET / binding between FMAL-actin and TMR-cC0-C2 (in words) [1]: decreased
effect on FLT-FRET / binding between FMAL-actin and PKA-phosphorylated TMR-cC0-C2 (in words) [7]: decreased
effect on FLT-FRET / binding between FMAL-actin and TMR-fC1-C2 (in words) [2]: decreased
473-nm Δτ, Repeat 1 [3]: 0.109 ns
473-nm Δτ, Repeat 2 [3]: 0.071 ns
473-nm z-score (based on avg Δτ) [3]: 5.08
532-nm Δτ, Repeat 1 (TMR-cC0-C2): -0.017 ns
532-nm Δτ, Repeat 2 (TMR-cC0-C2): -0.016 ns
532-nm z-score (based on avg Δτ) (TMR-cC0-C2): -0.99

Compound: CC(C(=O)O)c1ccc2c(c1)CC(=O)c1ccccc1S2 (stereo not shown) [Zaltoprofen]
effect on FLT of TMR-cC0-C2 (in words) [5]: do not affect
effect on FLT of TMR-fC1-C2 (in words) [6]: do not affect
specificity of FLT-FRET effect for unphosphorylated over phosphorylated cC0-C2 [1]: stronger reduction of FRET with non-phosphorylated than phosphorylated
effect on FLT-FRET / binding between FMAL-actin and TMR-cC0-C2 (in words) [1]: decreased
effect on FLT-FRET / binding between FMAL-actin and PKA-phosphorylated TMR-cC0-C2 (in words) [7]: decreased
effect on FLT-FRET / binding between FMAL-actin and TMR-fC1-C2 (in words) [2]: decreased
473-nm Δτ, Repeat 1 [3]: 0.113 ns
473-nm Δτ, Repeat 2 [3]: 0.083 ns
473-nm z-score (based on avg Δτ) [3]: 5.52
532-nm Δτ, Repeat 1 (TMR-cC0-C2): -0.015 ns
532-nm Δτ, Repeat 2 (TMR-cC0-C2): 0.015 ns
532-nm z-score (based on avg Δτ) (TMR-cC0-C2): 0.04

More lines, main results first:

effects on actin binding (FRET) ([1]; range over cC0-C2, phosphorylated cC0-C2 and fC1-C2): 13–35%
reduction in actin binding (fC1-C2-actin FRET) ([2]; skeletal MyBP-C): 13%
effect on skeletal MF ATPase activity (in words) [4]: affected ATPase
Compound: CO/N=C(\C(=O)N[C@@H]1C(=O)N2C(C(=O)O)=C(C[N+]3(C)CCCC3)CS[C@H]12)c1csc(N)n1 [Cefepime dihydrochloride monohydrate]
473-nm Δτ, Repeat 1 [3]: 0.127 ns
473-nm Δτ, Repeat 2 [3]: 0.102 ns
473-nm z-score (based on avg Δτ) [3]: 6.43
532-nm Δτ, Repeat 1 (TMR-cC0-C2): 0.006 ns
532-nm Δτ, Repeat 2 (TMR-cC0-C2): -0.096 ns
532-nm z-score (based on avg Δτ) (TMR-cC0-C2): -2.70

effect on FLT-FRET / binding between FMAL-actin and TMR-cC0-C2 (in words) [1]: decreased
effect on FLT-FRET / binding between FMAL-actin and PKA-phosphorylated TMR-cC0-C2 (in words) [7]: decreased
effect on FLT-FRET / binding between FMAL-actin and TMR-fC1-C2 (in words) [2]: decreased
Compound: CCC(C)(Oc1ccc(C2(c3ccc(OC(C)(CC)C(=O)O)cc3)CCCCC2)cc1)C(=O)O (stereo not shown) [Clinofibrate]
effect on FLT of TMR-cC0-C2 (in words) [5]: do not affect
effect on FLT of TMR-fC1-C2 (in words) [6]: do not affect
specificity of FLT-FRET effect for unphosphorylated over phosphorylated cC0-C2 [1]: stronger reduction of FRET with non-phosphorylated than phosphorylated
473-nm Δτ, Repeat 1 [3]: 0.090 ns
473-nm Δτ, Repeat 2 [3]: 0.075 ns
473-nm z-score (based on avg Δτ) [3]: 4.65
532-nm Δτ, Repeat 1 (TMR-cC0-C2): 0.006 ns
532-nm Δτ, Repeat 2 (TMR-cC0-C2): 0.016 ns
532-nm z-score (based on avg Δτ) (TMR-cC0-C2): 0.70

effect on FLT-FRET / binding between FMAL-actin and TMR-cC0-C2 (in words) [1]: decreased
effect on FLT-FRET / binding between FMAL-actin and PKA-phosphorylated TMR-cC0-C2 (in words) [7]: decreased
effect on FLT-FRET / binding between FMAL-actin and TMR-fC1-C2 (in words) [2]: decreased
Compound: COC(=O)N[C@H](C(=O)N1CCC[C@H]1c1nc(-c2ccc3c(c2)O[C@@H](c2ccccc2)n2c-3cc3cc(-c4c[nH]c([C@@H]5CCCN5C(=O)[C@@H](NC(=O)OC)C(C)C)n4)ccc32)c[nH]1)C(C)C [Elbasvir]
effect on FLT of TMR-cC0-C2 (in words) [5]: do not affect
effect on FLT of TMR-fC1-C2 (in words) [6]: do not affect
specificity of FLT-FRET effect for unphosphorylated over phosphorylated cC0-C2 [1]: 5 fold
473-nm Δτ, Repeat 1 [3]: 0.142 ns
473-nm Δτ, Repeat 2 [3]: 0.080 ns
473-nm z-score (based on avg Δτ) [3]: 6.24
532-nm Δτ, Repeat 1 (TMR-cC0-C2): -0.002 ns
532-nm Δτ, Repeat 2 (TMR-cC0-C2): 0.011 ns
532-nm z-score (based on avg Δτ) (TMR-cC0-C2): 0.31
